# Patent US20240139190A1, “NOVEL ANTIPARASITIC COMPOUNDS AND METHODS” (The Board of Regents of The University of Texas System, priority 2019, published 2024)
# Key:
# purified porcine tubulin [1] = biological target: T1, purified porcine tubulin (Sus scrofa, UniProt P02550+P02554); experiment: Tubulin polymerization turbidity assay, mammalian tubulin; format: biochemical
# T1 construct: purchased Cytoskeleton, Inc. T240
# Description: Tubulin polymerization assays were performed in 96-well half-area microplates (Costar) in a final volume of 100 μL. Briefly, Leishmanial or porcine tubulin (>99% pure, Cat. #T240, Cytoskeleton, Inc.) in 50 μL volume was pre-treated with drugs on ice for 5 minutes before adding 50 μL ice cold buffer, to provide a final concentration of 3 mg/ml tubulin in 80 mM PIPES pH 6.9, 2 mM MgCl2, 0.5 mM EGTA, 1 mM GTP, and 1% DMSO unless specified otherwise. The absorbance at 340 nm was recorded in a Synergy H1 microplate reader (BioTek) for up to 45 min at 37° C. (porcine tubulin) or 30° C. (L. tarentolae tubulin).
# (§1) To determine the selectivity of MMV676477, purified porcine tubulin was exposed to a serial dilution of the drug (0 to 25 μM) and absorbance was measured at 340 nm over time. […] To ensure that the absorbance seen at 340 nm reflected microtubule formation and not precipitation, a fluorescent microtubule assembly assay was employed.
# [2] = system: L. amazonensis promastigotes and amastigotes; experiment: Tubulin intensity by confocal immunofluorescence microscopy; format: cell-based, Leishmania amazonensis; details: 24 h at EC50^72 h
# Description: Promastigotes or amastigotes were treated with the indicated compound concentrations and allowed to adhere to poly-L-lysine coated plates. All cells were fixed with 4% paraformaldehyde and permeabilized/blocked with 0.01% Triton X-100 and 2% BSA in PBS. Promastigotes and amastigotes were incubated with mouse anti-gp46 or anti-p8, respectively at 1:50 or 1:1000 and rat anti-alpha-tubulin antibody at 1:1000. Samples were then probed with A568 anti-mouse and […] secondary antibodies (Molecular Probes). DNA was labeled with Hoescht. Samples were visualized on a Zeiss LSM 880 Inverted confocal Airyscan microscope at 63×; full Z-thicknesses through parasites were obtained. […] For microscopic analysis of mitotic arrest, at least 200 parasites were analyzed per condition per experiment after 48 hrs incubation at compounds' EC50, and the average plus standard error for three experiments was calculated. Representative images were selected from the maximal intensity projections and linearly processed in Adobe Photoshop CS6.
# One reason why MMV676477 might affect parasite cell division is that, like paclitaxel, it might affect microtubule polymerization, either directly or indirectly. The degree to which MMV676477 affected microtubules polymerization in cells was examined. […] Centrifugation of these extracts allowed separation of insoluble polymeric (pellet) and soluble dimeric (supernatant) tubulin. […] The intensity of α-tubulin staining was examined by normalizing it to the intensity of a membrane protein (gp46 for promastigotes in FIG. 4D; p8 for amastigotes in FIG. 4E).
# [3] = biological target: T2, purified L. tarentolae tubulin (Leishmania tarentolae, UniProt A0A640KCM0+A0A640KQN0); experiment: Chemical cross-linking competition with SW223022 probe; format: binding; details: 100-fold excess of competitor
# [4] = biological target: T2, purified L. tarentolae tubulin; experiment: Tubulin polymerization turbidity assay, Leishmania tubulin; format: biochemical
# Description: L. tarentolae (Parrot strain from ATCC) tubulin was purified. Briefly, promastigotes of L. tarentolae were grown to a high density (˜1×10^8 cells/mL), harvested, and resuspended in PME+P buffer containing 100 mM piperazine N, N′-bis (2-ethanesulfonic acid) (PIPES) buffer (pH 6.9), 1 mM glycol ether diamine tetraacetic acid (EGTA), 1 mM MgCl2, 1 mM benzamidine, 0.5 mM phenylmethylsulfonyl fluoride, 25 μg/ml leupeptin. The resulting suspension was extensively sonicated on ice with a probe sonicator (Misonix), cooled on ice for 30 minutes and centrifuged at 40,000×g for 1 hour at 4° C. using an ultracentrifuge (Beckman, Fullerton, CA). The resulting supernatant was filtered through a glass wool or 0.45-micron filter before loading into an equilibrated DEAE-Sepharose Fast Flow matrix (Amersham Biosciences). The column was washed with two column volumes of PME+P and subsequently four column volumes PME+P containing 0.1 M KCl and 0.25 M glutamate (pH 6.9). Tubulin was eluted with two column volumes PME+P containing 0.3 M KCl and 0.75 M glutamate (pH 6.9), and tubulin-rich fractions were confirmed by tubulin polymerization assays. The assembly-competent tubulin was pooled together and diluted into 1×PME buffer, 2 mM GTP, 10 mM MgCl2 and 8% DMSO (v/v). Tubulin was incubated in this buffer for 45 minutes at 30° C. to promote assembly, centrifuged at 50,000×g at 30° C. for 30 min, and re-suspended in 1 mL of ice-cold PME. […] Purity was assessed by SDS-PAGE and Coomassie Blue.
# Tubulin polymerization assays were performed in 96-well half-area microplates (Costar) in a final volume of 100 μL. […] The absorbance at 340 nm was recorded in a Synergy H1 microplate reader (BioTek) for up to 45 min at 37° C. […]
# To determine whether MMV676477 directly regulates microtubule assembly, assembly-competent tubulin from Leishmania tarentolae was purified and analyzed (FIG. 5A). […] 3 mg/mL purified L. tarentolae tubulin (3 mg/mL) was treated with serial dilutions of MMV676477 while the absorbance was measured at 340 nm over time.
# purified porcine tubulin [5] = biological target: T1, purified porcine tubulin; experiment: Fluorescent microtubule assembly assay; format: biochemical; details: mammalian tubulin, fluorescence micrographs
# Description: as §1
compound,measurement,setting,value
"CCc1c(C)nc(-n2nc(C)cc2NC(=O)c2ccccc2SC)[nH]c1=O [MMV676477, N-(1-(5-Ethyl-4-methyl-6-oxo-1,6-dihydropyrimidin-2-yl)-3-methyl-1H-pyrazol-5-yl)-2-(methylthio)benzamide]",EC50,"purified porcine tubulin [1]; 3 mg/ml tubulin, 1% DMSO, A340",11 µM
same,tubulin polymerization activity with detergent,purified porcine tubulin [1]; 0.01% Triton-X treatment,not affected
same,"Maximum absorbance (A340, 10% DMSO)",purified porcine tubulin [1]; mammalian tubulin,0.4
same,tubulin intensity over control (DMSO-treated),[2],significant two-fold increase in tubulin intensity
same,competition with SW223022 probe (fluorescent tubulin band),[3],almost completely absent
same,EC50,[4],0.5 µM
same,selectivity for purified Leishmania tubulin over mammalian tubulin,[4]; 0.5 vs 11 μM EC50,20 fold
same,microtubules formed vs control,purified porcine tubulin [5],many more microtubules were formed
